# From PMC8301576 (Clinical and Translational Science, 2021)
# Several values for one entry are separate records, joined by “and”; a condition that tells them apart may be missing. Identical values can stand only once. Like-named read-outs stand apart in the source and are kept apart here.
# Tests used:
# BCRP [1] = target: T1, BCRP (Homo sapiens, UniProt Q9UNQ0); test: Trial 1: clinical DDI, rosuvastatin with TLV vs rosuvastatin alone; assay type: in vivo
# T1 sequence (Q9UNQ0 1-655): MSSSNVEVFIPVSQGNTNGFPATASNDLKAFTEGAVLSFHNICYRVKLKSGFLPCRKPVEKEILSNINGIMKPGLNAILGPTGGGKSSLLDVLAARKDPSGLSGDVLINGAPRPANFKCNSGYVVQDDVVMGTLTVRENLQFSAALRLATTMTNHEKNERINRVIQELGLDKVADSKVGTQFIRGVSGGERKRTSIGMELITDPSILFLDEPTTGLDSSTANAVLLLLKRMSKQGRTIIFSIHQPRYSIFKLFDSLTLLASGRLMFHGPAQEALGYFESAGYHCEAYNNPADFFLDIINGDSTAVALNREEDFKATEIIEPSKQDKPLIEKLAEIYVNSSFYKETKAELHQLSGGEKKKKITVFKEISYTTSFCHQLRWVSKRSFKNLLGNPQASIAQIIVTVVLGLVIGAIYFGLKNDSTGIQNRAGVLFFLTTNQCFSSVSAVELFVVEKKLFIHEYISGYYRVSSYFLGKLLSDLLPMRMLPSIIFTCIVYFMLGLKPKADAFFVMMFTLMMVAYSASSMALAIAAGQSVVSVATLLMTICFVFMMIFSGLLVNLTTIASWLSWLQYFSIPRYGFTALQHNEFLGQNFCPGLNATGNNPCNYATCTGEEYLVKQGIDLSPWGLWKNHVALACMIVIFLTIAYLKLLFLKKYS
# [2] = Trial 1: treatment-emergent adverse events; assay type: in vivo, human
# [3] = Trial 2: treatment-emergent adverse events; assay type: in vivo, human
# [4] = cited from earlier work; for Solubility: pH independent
# [5] = cited from earlier work
# [6] = test system: sodium‐dependent taurocholate co‐transporting polypeptide (NTCP); settings: cited from earlier work
# [7] = test system: sandwich‐cultured human hepatocytes; settings: cited from earlier work
# [8] = predicted; cited from earlier work
# BCRP [9] = target: T1, BCRP; test: Prazosin transport in MDCKII BCRP expressing cells; settings: 90-mg TLV dose (200 µmol) assumed completely soluble in 250 ml
# [10] = Trial 1: plasma pharmacokinetics in healthy subjects; assay type: in vivo, human
# OATP1B1 = target: T2, OATP1B1 (Homo sapiens, UniProt Q9Y6L6); assay type: in vivo
# T2 sequence (Q9Y6L6 1-691): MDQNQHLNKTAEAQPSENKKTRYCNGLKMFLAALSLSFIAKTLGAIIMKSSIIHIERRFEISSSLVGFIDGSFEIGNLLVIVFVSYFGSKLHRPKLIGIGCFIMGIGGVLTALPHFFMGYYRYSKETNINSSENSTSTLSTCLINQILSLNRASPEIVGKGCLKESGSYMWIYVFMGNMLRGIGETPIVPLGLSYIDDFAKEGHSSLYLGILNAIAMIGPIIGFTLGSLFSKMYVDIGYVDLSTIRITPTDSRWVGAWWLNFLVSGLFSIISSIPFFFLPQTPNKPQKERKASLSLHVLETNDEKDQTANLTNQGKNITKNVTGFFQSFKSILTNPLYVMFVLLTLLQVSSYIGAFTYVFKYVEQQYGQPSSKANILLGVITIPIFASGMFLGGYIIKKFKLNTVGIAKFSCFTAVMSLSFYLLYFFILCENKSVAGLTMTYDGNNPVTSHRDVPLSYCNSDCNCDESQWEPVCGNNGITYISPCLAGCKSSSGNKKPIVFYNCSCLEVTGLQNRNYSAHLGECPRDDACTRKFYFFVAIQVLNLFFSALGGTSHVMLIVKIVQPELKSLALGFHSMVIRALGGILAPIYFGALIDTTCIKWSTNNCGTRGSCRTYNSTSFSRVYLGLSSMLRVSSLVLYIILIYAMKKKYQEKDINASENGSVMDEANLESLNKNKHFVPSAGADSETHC
# Plasma protein binding = assay type: in vitro ADME
# [11] = Trial 2: plasma pharmacokinetics in healthy subjects; assay type: in vivo, human; settings: 48 h postdose after 7 days 300 mg TLV q.d.
# OAT3 = target: T3, OAT3 (Homo sapiens, UniProt Q8TCC7); test: Trial 2: clinical DDI, furosemide in presence of DM-4103 vs furosemide alone; assay type: in vivo; settings: at clinically relevant concentrations
# T3 sequence (Q8TCC7 1-542): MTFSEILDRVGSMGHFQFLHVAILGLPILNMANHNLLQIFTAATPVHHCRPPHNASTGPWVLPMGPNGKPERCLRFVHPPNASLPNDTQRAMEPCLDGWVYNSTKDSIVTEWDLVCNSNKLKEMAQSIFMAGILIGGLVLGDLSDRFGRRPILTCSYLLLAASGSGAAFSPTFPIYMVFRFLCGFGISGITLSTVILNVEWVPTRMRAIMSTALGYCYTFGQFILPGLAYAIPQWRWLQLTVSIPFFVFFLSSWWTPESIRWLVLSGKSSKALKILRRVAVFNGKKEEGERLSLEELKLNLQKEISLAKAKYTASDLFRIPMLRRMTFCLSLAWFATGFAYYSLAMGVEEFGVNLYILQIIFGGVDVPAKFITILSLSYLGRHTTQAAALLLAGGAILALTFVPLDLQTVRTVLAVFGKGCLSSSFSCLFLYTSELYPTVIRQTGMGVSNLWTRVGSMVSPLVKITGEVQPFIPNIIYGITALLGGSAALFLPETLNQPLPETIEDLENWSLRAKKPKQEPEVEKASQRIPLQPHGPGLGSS
# [12] = Earlier clinical data on TLV and DM-4103; assay type: in vivo, human; settings: from elimination half-life
# [13] = trial 1, period 3 (TLV alone, 300 mg q.d.)
# [14] = trial 2, period 2 (TLV alone, 300 mg q.d.)
# [15] = rosuvastatin + 90 mg tolvaptan vs rosuvastatin alone, n = 14
compound,measurement,setting,value
"Cc1ccccc1C(=O)Nc1ccc(C(=O)N2CCCC(O)c3cc(Cl)ccc32)c(C)c1 (stereo not shown) [TLV, Tolvaptan]",Clinical inhibition of BCRP,BCRP [1]; 90 mg TLV with 5 mg rosuvastatin calcium,No clinically relevant inhibition
same,TEAE incidence: constipation,[2]; [13],14.3%
same,TEAE incidence: dry mouth,[2]; [13],14.3%
same,TEAE incidence: nausea,[2]; [13],21.4%
same,TEAE incidence: pollakiuria,[2]; [13],71.4%
same,TEAE incidence: constipation,[3]; [14],14.3%
same,TEAE incidence: dizziness,[3]; [14],14.3%
same,TEAE incidence: dry mouth,[3]; [14],21.4%
same,TEAE incidence: headache,[3]; [14],14.3%
same,TEAE incidence: insomnia,[3]; [14],14.3%
same,TEAE incidence: polyuria,[3]; [14],100%
same,TEAE incidence: thirst,[3]; [14],92.9%
same,Increase of in vitro solubility by spray-dried formulation,"[4]; TLV tablets, spray-dried technique",up to sevenfold
same,Solubility,[4],~ 0.01 g/250 ml
same,Solubility,[4]; in Discussion,about 0.01 mg/250 ml and ~ 0.09 µM
same,Safety and tolerability,"[5]; 300 mg TLV for 5 days, healthy subjects",safe and well‐tolerated
same,half-life,[5],about 3.5 h
same,NTCP inhibition,[6]; IC50 value higher than Cmax,inhibitor of NTCP
same,Accumulation in sandwich-cultured human hepatocytes,[7],at least 10 fold
same,Liver:blood ratio,[8],38.76
same,Predicted concentration of dose in 250 ml (Igut),BCRP [9],800 µM
"NS(=O)(=O)c1cc(C(=O)O)c(NCc2ccco2)cc1Cl [Furosemide, furosemide]",TEAE incidence: polyuria,"[3]; trial 2, period 1 (furosemide alone)",64.3%
same,TEAE incidence: headache,"[3]; trial 2, period 3 (furosemide in presence of DM-4103)",21.4%
"CC(C)c1nc(N(C)S(C)(=O)=O)nc(-c2ccc(F)cc2)c1/C=C/[C@@H](O)C[C@@H](O)CC(=O)O [ROS, rosuvastatin]",Tmax,"[10]; 5 mg ROS alone, median (minimum-maximum)",3.50 (2.00–6.00) h
same,AUC(0-inf),"[10]; human, plasma, oral, 5 mg, AUC∞, 5 mg ROS alone, minimum-maximum, n = 7",20.3 to 36 ng·h/mL
same,CL/F,"[10]; human, plasma, oral, 5 mg, CL/F, 5 mg ROS alone, minimum-maximum, n = 7",28.5 to 68.2 mL/min/kg
same,half-life,"[10]; human, plasma, oral, 5 mg, t1/2,z, 5 mg ROS alone, minimum-maximum, n = 7",2.4 to 4.3 h
same,"Geometric mean ratio (90% CI), AUC∞","BCRP [1]; rosuvastatin + 90 mg tolvaptan vs rosuvastatin alone, n = 6",1.281^a 1.148–1.429
same,"Geometric mean ratio (90% CI), AUCt",BCRP [1]; [15],1.69
same,"Geometric mean ratio (90% CI), Cmax",BCRP [1]; [15],1.54
same,"Geometric mean ratio (90% CI), AUC∞","OATP1B1; rosuvastatin in presence of DM-4103 vs rosuvastatin alone, n = 5",0.998^b 0.876–1.138
same,TEAE incidence: nausea,"[2]; trial 1, period 1 (rosuvastatin)",12.5%
same,TEAE incidence: headache,"[2]; trial 1, period 3 (rosuvastatin in presence of DM-4103)",14.3%
same,Share of rosuvastatin uptake accounted for by NTCP alone,[6]; human hepatocyte studies,~ 35%
Cc1ccccc1C(=O)Nc1ccc(C(=O)Nc2ccc(Cl)cc2C(=O)CCC(=O)O)c(C)c1 [DM‐4103],Plasma protein binding,Plasma protein binding,greater than 99.8%
same,"Plasma concentration, mean (SD)","[10]; trial 1, 48 h postdose after 7 days 300 mg TLV q.d.",7240 (1880) ng/ml
same,"Plasma concentration, mean (SD)",[11],6430 (2030) ng/ml
same,Clinical inhibition of OATP1B1,OATP1B1; at clinically relevant concentrations,not an inhibitor
same,Clinical inhibition of OAT3,OAT3,not an inhibitor
same,Time to steady-state concentrations after start of TLV dosing,[12],~ 8 weeks
same,Mean steady-state plasma concentration,"[5]; 90 + 30 mg TLV regimen in subjects with ADPKD, ref data on file",~ 7500 ng/ml and ~15.7 µM
same,Elimination half-life,[5],~ 180 h
same,Plasma concentrations,"[5]; first 2 h following a 90 mg TLV dose, ref data on file",less than 100 ng/ml
